Laboratory results reported in patent US10137070B2 (Industry-Academic Cooperation Foundation, Yonsei University, priority 2016, dated 2018).

Key:
human skin fibroblasts = test: Procollagen type I C-peptide (PIP) secretion of UVB-irradiated human skin fibroblasts (EIA kit); assay type: cell-based; settings: 100 μM each; UVB 20 mJ/cm^2; 24 hours culture; mean of three wells
Protocol: Primary dermal fibroblasts (normal, human, neonatal, ATCC No. PCS-201-010) were purchased from ATCC (Manassas, Va., USA). The purchased cells were incubated in a 5% CO2 incubator at 37° C. by using a fibroblast growth medium (Promo Cell, Heidelberg) and used in experiments.
To examine collagen biosynthesis ability, human fibroblasts were distributed into a 12 well-plate at a concentration of 1.0×10^6 cells/well, α-ionone and vitamin C were added thereto at a concentration of 100 μM each, and the resulting human fibroblasts were incubated in a CO2 incubator for 24 hours. After removing the medium from each well, the plate was washed once with PBS, and 1 ml of PBS was added thereto, followed by irradiation with ultraviolet B (UVB) at a dose of 20 mJ/cm^2. The PBS of each well was replaced by a medium and the human fibroblasts were cultured for 24 hours, and then the amount of procollagen secreted into the medium was measured using a procollagen type C-peptide EIA kit (Takara Bio, Japan). A standard solution included in the collagen measurement kit was diluted according to concentration, absorbance was measured at 450 nm to create a standard concentration curve, and the amount of collagen produced was calculated. […]

[1] = Body weights and food intakes of hairless mice fed experimental diets; assay type: in vivo, albino hairless mice (Skh-1); settings: 0.2% in AIN-93 diet for 10 weeks; UVB-irradiated hairless mice
From the text: (§1) 5-week-old female albino hairless mice (Skh-1) used in the present example were purchased from ORIENTBIO (Gyeonggi-do, Korea) and subjected to an adaptation period of 1 week with solid feed. The experimental animal was divided into 4 groups and 5 mice were assigned to each group. All the experimental groups were divided into a normal control not irradiated with ultraviolet rays (−UVB), a group irradiated with ultraviolet rays (+UVB), and a group irradiated with ultraviolet rays and treated with α-ionone (αIO) or vitamin C (VitC). During a rearing period, the experimental groups were freely fed feed and water, temperature and humidity were maintained at 22±1° C. and 60±5%, a light period and a dark period were adjusted every day to 12 hours.
(§2) The −UVB and +UVB groups were fed a purified diet formulated based on the AIN-93 rodent diet composition (Ree yes, P G et al., J Nutr, 123:1939-1951, 1993) for 10 weeks, the αIO group were fed an AIN-93 purified diet with 0.2% of α-ionone (Sigma-Aldrich) for 10 weeks, and the VitC group was fed a diet, prepared by adding 0.2% of vitamin C (Sigma-Aldrich) to the AIN-93 purified diet, for 10 weeks. The diets were supplied daily with water between 10 am and 11 am, and food intakes were measured daily.
(§3) During the experimental rearing period, dorsal parts of the hairless mice were irradiated with UVB three times a week, and the amount of ultraviolet radiation was 73 mJ/cm^2 for the first one week, 146 mJ/cm^2 for the second week, and 219 mJ/cm^2 for the third week to the tenth week. During rearing, body weights and skin thicknesses of the experimental groups were measured weekly, and images of dorsal skin parts thereof were taken. The skin thicknesses of buttocks of the hairless mice were measured using a digital micro caliper (Marathon Watch Company Ltd, Ontario, Canada).

[2] = test system: skin tissues of ultraviolet rays-irradiated hairless mice; test: Skin moisture content, moisture evaporation, elasticity and erythema index of UVB-irradiated hairless mice (Corneometer, Tewameter, Cutometer, Mexameter); assay type: in vivo, albino hairless mice (Skh-1); settings: 0.2% in diet for 10 weeks; UVB three times a week; last day
From the text: as §1, §2, §3
Skin moisture content, moisture evaporation, elasticity, and the erythema index of each of the experimental animal groups were measured once on the last day of the experiment using Corneometer®, Tewameter®, Cutometer®, and Mexameter® (Courage+Khazaka electronic GmbH), respectively. During the measurement, the value obtained by lightly pressing a certain portion of the experimental animal or the like was recorded.

[3] = test system: dorsal skin of ultraviolet rays-irradiated hairless mice; test: Wrinkle formation on dorsal skin of UVB-irradiated hairless mice (images, silicone replica, image analyzer); assay type: in vivo, albino hairless mice (Skh-1); settings: 0.2% in diet for 10 weeks
From the text: as §1, §2, §3
The skin of each hairless mouse irradiated with ultraviolet rays for 10 weeks was replicated using silicone rubber and a degree of the formation of wrinkles was measured. A disk with a circular hole having a diameter of 1 cm was attached to a dorsal part of the hairless mouse, reagents for preparing a replica were mixed, the mixed resultant was thinly spread on the dorsal art of the hairless mouse and completely dried, and then the disk was carefully detached therefrom, thereby completing the preparation of the replica. The replica was prepared at a temperature of about 20° C. to about 23° C. and a humidity of about 45% to about 50% under constant temperature and constant humidity conditions, a silicon rubber impression material (Epigem, Seoul, Korea) for preparing a replica was used. To analyze the prepared replica, four wrinkle indexes, such as a total wrinkle area, a maximum wrinkle depth, a mean depth, and a mean length were analyzed using a computer image analyzer (Visioline VL650, Courage+Khazaka electronic GmbH, Germany).

[4] = test system: skin of UV-irradiated hairless mice; test: Skin thickness of UV-irradiated hairless mice (digital micro caliper); assay type: in vivo, albino hairless mice (Skh-1); settings: last day, 0.2% in diet for 10 weeks
From the text: as §1
as §2, with “daily. […]” for “daily.”

[5] = test system: skin epidermis layer of UV-irradiated hairless mice; test: Skin epidermis layer thickness by H&E staining; assay type: in vivo, albino hairless mice (Skh-1); settings: 0.2% in diet for 10 weeks; UVB for 10 weeks
From the text: as §1
as §2, with “daily. […]” for “daily.”

[6] = test system: collagen fibers in dermis layers of UV-irradiated hairless mice; test: Collagen fibers in dermis layer by Masson's trichrome staining; assay type: in vivo, albino hairless mice (Skh-1); settings: 0.2% in diet for 10 weeks; UVB for 10 weeks
From the text: as §1
as §2, with “daily. […]” for “daily.”

[7] = test system: Collagen type I alpha1 (Col1α1); test: RT-PCR gene expression in dorsal skin tissue: Col1α1; assay type: in vivo, albino hairless mice (Skh-1); settings: 0.2% in diet for 10 weeks
From the text: as §1
as §2, with “daily. […]” for “daily.”

[8] = test system: Collagen type I alpha2 (Col1α2); test: RT-PCR gene expression in dorsal skin tissue: Col1α2; assay type: in vivo, albino hairless mice (Skh-1); settings: 0.2% in diet for 10 weeks
From the text: as §1
as §2, with “daily. […]” for “daily.”

[9] = test system: Collagen type III alpha1 (Col3α1); test: RT-PCR gene expression in dorsal skin tissue: Col3α1; assay type: in vivo, albino hairless mice (Skh-1); settings: 0.2% in diet for 10 weeks
From the text: as §1
as §2, with “daily. […]” for “daily.”

[10] = test system: Matrix metallopeptidase 1a (MMP-1a); test: RT-PCR gene expression in dorsal skin tissue: MMP-1a; assay type: in vivo, albino hairless mice (Skh-1); settings: 0.2% in diet for 10 weeks
From the text: as §1
as §2, with “daily. […]” for “daily.”

[11] = test system: Matrix metallopeptidase 1b (MMP-1b); test: RT-PCR gene expression in dorsal skin tissue: MMP-1b; assay type: in vivo, albino hairless mice (Skh-1); settings: 0.2% in diet for 10 weeks
From the text: as §1
as §2, with “daily. […]” for “daily.”

[12] = test system: Matrix metallopeptidase 3 (MMP-3); test: RT-PCR gene expression in dorsal skin tissue: MMP-3; assay type: in vivo, albino hairless mice (Skh-1); settings: 0.2% in diet for 10 weeks
From the text: as §1
as §2, with “daily. […]” for “daily.”

[13] = test system: Matrix metallopeptidase 9 (MMP-9); test: RT-PCR gene expression in dorsal skin tissue: MMP-9; assay type: in vivo, albino hairless mice (Skh-1); settings: 0.2% in diet for 10 weeks
From the text: as §1
as §2, with “daily. […]” for “daily.”

[14] = in vivo; cited from earlier work
rats = settings: 32 rats, orally 10 mg/day for 8 weeks; cited from earlier work
[15] = test system: microorganisms harmful to the human body; settings: Findic et al 2009; cited from earlier work
[16] = replica, computer image analyzer

O=C1O[C@H]([C@@H](O)CO)C(O)=C1O [vitamin C, reference compound]
increase in the amount of collagen (procollagen type I C-peptide secreted) compared to control cells irradiated with ultraviolet rays alone (+UVB) (human skin fibroblasts): 37% | effect on body weights [1]: no significant effect | effect on food intakes [1]: no significant effect

CC(=O)/C=C/C1C(C)=CCCC1(C)C (stereo not drawn) [α-ionone, (3E)-4-(2,6,6-trimethylcyclohex-2-en-1-yl)but-3-en-2-one]
increase in the amount of collagen (procollagen type I C-peptide secreted) compared to control cells irradiated with ultraviolet rays alone (+UVB) (human skin fibroblasts): 37% | effect on body weights [1]: no significant effect | effect on food intakes [1]: no significant effect | decrease in erythema index compared to the +UVB control [2]: 26% | decrease in moisture evaporation compared to the +UVB control [2]: 46% | increase in elasticity of skin tissue compared to the +UVB control [2]: 77% | increase in moisture content of skin tissue compared to the +UVB control [2]: 78% | degree of formation of wrinkles in silicone rubber replica compared to the +UVB control ([3]; UVB for 10 weeks): significant improvement on the thickness and depth of wrinkles | skin wrinkles in images of dorsal skin (naked eye) compared to the +UVB control ([3]; UVB for 10 weeks): significant decrease in the thickness and depth of wrinkles | decrease in maximum wrinkle depth compared to the +UVB control [3, 16]: 49% | decrease in mean depth of wrinkles compared to the +UVB control [3, 16]: 39% | decrease in mean length of wrinkles compared to the +UVB control [3, 16]: 68% | decrease in total wrinkle area compared to the +UVB control [3, 16]: 60% | decrease in skin thickness compared to the +UVB control [4]: 19% | thickness of the thickened epidermis layer due to UV irradiation (H&E staining) [5]: significant decrease | collagen fibers of the dermis layer (Masson's trichrome, aniline blue) compared to the control irradiated alone [6]: relatively more compact and regularly arranged | expression of collagen type 1α1 compared to the +UVB control [7]: significant increase | expression of collagen type 1α2 compared to the +UVB control [8]: significant increase | expression of collagen type 3α1 compared to the +UVB control [9]: significant increase | expression of MMP-1a gene compared to the +UVB control [10]: significant decrease | expression of MMP-1b gene compared to the +UVB control [11]: significant decrease | expression of MMP-3 gene compared to the +UVB control [12]: significant decrease | expression of MMP-9 gene compared to the +UVB control [13]: significant decrease

ionone
LD50 [14]: 2 g/kg body weight | toxicity after oral administration (rats): no toxicity was shown | antimicrobial activity [15]: strong antimicrobial activity
